Measured values reported in paper PMC9234671, “Molecular determinants of αVβ5 localization in flat clathrin lattices – role of αVβ5 in cell adhesion and proliferation” (Journal of Cell Science, 2022).

Assays:
[1] = tested on: integrin β5 localization in PA-JEB keratinocytes; experiment: Immunofluorescence: integrin β5 clustering in FAs/FCLs, PA-JEB; format: cell-based, human; conditions: 5 nM calyculin A versus DMSO, 30 min, 10% FCS DMEM, three independent experiments
Source text: Fig. 3. Serine 759 and 762 are involved in regulating the localization of integrin β5. (A–C) Integrin β5 containing S759/762E or S759/762A mutations (A) were expressed in β5-deficient PA-JEB/β4 keratinocytes and the subcellular distribution of β5 was compared to β5-deficient keratinocytes expressing wild-type (WT) β5. Merged images show integrin β5 (green), vinculin (B) or clathrin (C) (red), actin (blue) and the cell nuclei (cyan). (D,E) Analysis of wild-type versus mutant integrin β5 clustering in FAs or FCLs. (F–I) PA-JEB/β4 keratinocytes were grown in 10% FCS-supplemented DMEM culture medium overnight and then treated with 5 nM calyculin A (Cal.A) or DMSO (vehicle control) for 30 min prior to fixation. Merged images show integrin β5 (green), vinculin (F) or clathrin (H) (red), actin (blue) and the cell nuclei (cyan), quantifications of β5 clustering in FAs or FCLs are shown in G,I. (J,K) Analysis of integrin β5 clustering in FAs or FCLs in PA-JEB keratinocytes after treatment with Cal.A. Representative confocal microscopy images are shown in Fig. S3. Scale bars: 20 μm. Data were obtained from three independent experiments. Total cells analyzed per condition: 109 (WT), 116 (S>E), 103 (S>A) (D), 81 (WT), 77 (S>E), 101 (S>A) (E), 126 and 123 (G), 111 and 101 (I), 106 and 102 (J), 115 and 109 (K). ****P<0.0001 (Mann–Whitney U-test). […]

[2] = tested on: GEF-H1 (phospho S886) in PA-JEB and PA-JEB/β4 keratinocytes; experiment: Western blot: GEF-H1 phosphorylation; format: cell-based, human; conditions: after calyculin A, n=3
Protocol: Proteins were separated by electrophoresis using a Bolt Novex 4–12% gradient Bis-Tris gels (Invitrogen) or 15% SDS-PAGE gels (made in-house), transferred to Immobilon-P transfer membranes (Millipore Corp) and blocked for at least 30 min in 2% BSA in TBST buffer (10 mM Tris-HCl pH 7.5, 150 mM NaCl and 0.3% Tween-20). Primary antibody (diluted 1:1000 in 2% BSA in TBST buffer) incubation took place overnight at 4°C. After washing twice with TBST and twice with TBS, blots were incubated for 1 h hour at room temperature with horseradish peroxidase-conjugated goat anti-mouse-IgG or goat anti-rabbit-IgG (diluted 1:3000 in 2% BSA in TBST buffer). After subsequent washing steps, the bound antibodies were detected by enhanced chemiluminescence using SuperSignal™ West Dura Extended Duration Substrate (ThermoFisher) or Clarity™ Western ECL Substrate (Bio-Rad) as described by the manufacturer. Signal intensities were quantified using ImageJ.
Fig. S4. (A) Representative western blots of phosphorylated myosin light chain (MLC) and GAPDH in PA-JEB/β4 keratinocytes treated with DMSO versus Nocodazole. […]
μm. Quantifications of β5 or β5 mutants clustering in FAs are shown in (C-E). […] Total cells analyzed per condition: 90 (WT, DMSO), 111 (WT, Noco.) (C), 40 (S>E, DMSO), 80 (S>E, Noco.) (D), 65 (S>A, DMSO), 82 (S>A, Noco.) (E). […]

In the case of `COC[C@@H]([C@H](O)[C@H](O)C(=O)NCC[C@H](C)c1nc(/C=C/C[C@@H]2O[C@]3(C[C@@H](O)[C@@H]2C)O[C@H]([C@H](C[C@H](O)[C@H](C)[C@H](O)[C@H](C)/C=C(C)/C(C)=C/C=C/C(C)=C\C#N)OC)[C@H](OP(=O)(O)O)C3(C)C)co1)N(C)C` [calyculin A], the “localization of integrin β5 in FCLs, PA-JEB” value ([1]; colocalization with clathrin) was “increased the localization in FCLs”, the “localization of integrin β5 in FAs, PA-JEB” value ([1]; colocalization with vinculin) was “reduced the localization of integrin β5 in FAs” and the “phosphorylation of GEF-H1” value [2] was “increase in the phosphorylation of GEF-H1”.
